From patent US12281125B2, “Rapamycin derivatives” (NOVARTIS AG, priority 2018, dated 2025)

Tested on: mTORc1 signaling, pS6 (Ser240/244) in MEF TSCl−/− cells
Experiment: Cell-based assay for rapalog potency (pS6) in MEF TSCl−/− cells
Conditions: Mus musculus, 2 hours treatment, average from multiple assays
Procedure: Rapalog potency was determined using MEF TSCl−/− cell based assay. MEF TSCl−/− cells are Mouse Embryonic Fibroblasts deficient in Tuberous sclerosis protein—TSCl, which negatively regulates mTORc1 signaling and thus display constitutive mTORc1 activation, resulting in phosphorylation (activation) of downstream molecules. This cell-based assay is used to measure inhibition (de-phosphorylation) of S6 and 4EBP1 by rapalogs or other mTOR inhibitors.
MEF TSCl−/− cells were plated on Poly-D-lysine coated 384 well Griener clear bottom plates and incubated overnight at 37° C., 5% CO2. On the following day, cells were washed 8 times with “Hard starve” solution (1 L DPBS+1 g D-(+) glucose+10 ml of 7.5% Sodium Bicarbonate+20 ml of 1M HEPES) and incubated for further 2 hours in the same solution. Cells were next treated with compounds with decreasing concentrations (8 points at 3.16 fold dilutions) and incubated for 2 hours at 37° C., 5% CO2. Cells were fixed with 4% paraformaldehyde for 30 min and washed 5 times with TBS-EDTA followed by immuno-staining with fluorescent tag labeled antibodies for pS6 (Ser240/244) (Cell Signaling #9468) and p4EBP1 (Thr 37/46) (Cell Signaling #5123). Nuclei were visualized with Hoechst (ThermoFisher Scientific #H3570) staining. Cells were imaged (InCell 600) using respective fluorescence channels and the potency of mTOR inhibitors was defined by pS6 IC50 (nM).
In vitro potency of mTOR inhibitors was defined by pS6 IC50 (nM) in MEF TSCl−/− cells.
IC50 values are calculated as the average from multiple assays.

| IC50 [nM] | SMILES |
| --- | --- |
| 1.8 | CO[C@@H]1C[C@H](C[C@@H](C)[C@@H]2CC[C@H](C)/C=C(\C)[C@@H](O)[C@@H](OC)C(=O)[C@H](C)C[C@H](C)/C=C/C=C/C=C(\C)[C@H](NS(C)(=O)=O)C[C@@H]3CC[C@@H](C)[C@@](O)(O3)C(=O)C(=O)N3CCCC[C@H]3C(=O)O2)CC[C@H]1OCCO [Compound 25] |
| 1.9 | CO[C@@H]1C[C@H](C[C@@H](C)[C@@H]2CC[C@H](C)/C=C(\C)[C@@H](O)[C@@H](OC)C(=O)[C@H](C)C[C@H](C)/C=C/C=C/C=C(\C)[C@@H](N(C)S(C)(=O)=O)C[C@@H]3CC[C@@H](C)[C@@](O)(O3)C(=O)C(=O)N3CCCC[C@H]3C(=O)O2)CC[C@H]1OP(C)(C)=O [Compound 27] |
| 0.35 | CO[C@@H]1C[C@H](C[C@@H](C)[C@@H]2CC[C@H](C)/C=C(\C)[C@@H](O)[C@@H](OC)C(=O)[C@H](C)C[C@H](C)/C=C/C=C/C=C(\C)[C@@H](N)C[C@@H]3CC[C@@H](C)[C@@](O)(O3)C(=O)C(=O)N3CCCC[C@H]3C(=O)O2)CC[C@H]1O [Compound 28] |
| 30 | CO[C@@H]1C[C@H](C[C@@H](C)[C@@H]2CC[C@H](C)/C=C(\C)[C@@H](O)[C@@H](OC)C(=O)[C@H](C)C[C@H](C)/C=C/C=C/C=C(\C)[C@H](N)C[C@@H]3CC[C@@H](C)[C@@](O)(O3)C(=O)C(=O)N3CCCC[C@H]3C(=O)O2)CC[C@H]1O [Compound 29] |
| 18 | CN[C@@H]1C[C@@H]2CC[C@@H](C)[C@@](O)(O2)C(=O)C(=O)N2CCCC[C@H]2C(=O)O[C@H]([C@H](C)C[C@@H]2CC[C@@H](O)[C@H](OC)C2)CC[C@H](C)/C=C(\C)[C@@H](O)[C@@H](OC)C(=O)[C@H](C)C[C@H](C)/C=C/C=C/C=C/1C [Compound 32] |
| 0.67 | CN[C@H]1C[C@@H]2CC[C@@H](C)[C@@](O)(O2)C(=O)C(=O)N2CCCC[C@H]2C(=O)O[C@H]([C@H](C)C[C@@H]2CC[C@@H](O)[C@H](OC)C2)CC[C@H](C)/C=C(\C)[C@@H](O)[C@@H](OC)C(=O)[C@H](C)C[C@H](C)/C=C/C=C/C=C/1C [Compound 33] |
| 27 | CO[C@@H]1C[C@H](C[C@@H](C)[C@@H]2CC[C@H](C)/C=C(\C)[C@@H](O)[C@@H](OC)C(=O)[C@H](C)C[C@H](C)/C=C/C=C/C=C(\C)[C@H](N(O)C(=O)OC(C)(C)C)C[C@@H]3CC[C@@H](C)[C@@](O)(O3)C(=O)C(=O)N3CCCC[C@H]3C(=O)O2)CC[C@H]1O [Compound 34] |
| 4.4 | CO[C@@H]1C[C@H](C[C@@H](C)[C@@H]2CC[C@H](C)/C=C(\C)[C@@H](O)[C@@H](OC)C(=O)[C@H](C)C[C@H](C)/C=C/C=C/C=C(\C)[C@@H](N(O)C(=O)OC(C)(C)C)C[C@@H]3CC[C@@H](C)[C@@](O)(O3)C(=O)C(=O)N3CCCC[C@H]3C(=O)O2)CC[C@H]1O [Compound 35] |
| 1.6 | CO[C@@H]1C[C@H](C[C@@H](C)[C@@H]2CC[C@H](C)/C=C(\C)[C@@H](O)[C@@H](OC)C(=O)[C@H](C)C[C@H](C)/C=C/C=C/C=C(\C)[C@H](NO)C[C@@H]3CC[C@@H](C)[C@@](O)(O3)C(=O)C(=O)N3CCCC[C@H]3C(=O)O2)CC[C@H]1O [Compound 36] |
| 0.21 | CO[C@@H]1C[C@H](C[C@@H](C)[C@@H]2CC[C@H](C)/C=C(\C)[C@@H](O)[C@@H](OC)C(=O)[C@H](C)C[C@H](C)/C=C/C=C/C=C(\C)[C@@H](NO)C[C@@H]3CC[C@@H](C)[C@@](O)(O3)C(=O)C(=O)N3CCCC[C@H]3C(=O)O2)CC[C@H]1O [Compound 37] |

The next lines start with the molecule.

| SMILES | IC50 [nM] |
| --- | --- |
| CCCS(=O)(=O)N[C@H]1C[C@@H]2CC[C@@H](C)[C@@](O)(O2)C(=O)C(=O)N2CCCC[C@H]2C(=O)O[C@H]([C@H](C)C[C@@H]2CC[C@@H](O)[C@H](OC)C2)CC[C@H](C)/C=C(\C)[C@@H](O)[C@@H](OC)C(=O)[C@H](C)C[C@H](C)/C=C/C=C/C=C/1C [Compound 5] | 1.8 |
| CCCS(=O)(=O)N[C@@H]1C[C@@H]2CC[C@@H](C)[C@@](O)(O2)C(=O)C(=O)N2CCCC[C@H]2C(=O)O[C@H]([C@H](C)C[C@@H]2CC[C@@H](O)[C@H](OC)C2)CC[C@H](C)/C=C(\C)[C@@H](O)[C@@H](OC)C(=O)[C@H](C)C[C@H](C)/C=C/C=C/C=C/1C [Compound 6] | 13 |
| CO[C@@H]1C[C@H](C[C@@H](C)[C@@H]2CC[C@H](C)/C=C(\C)[C@@H](O)[C@@H](OC)C(=O)[C@H](C)C[C@H](C)/C=C/C=C/C=C(\C)[C@@H](NS(=O)(=O)C(C)C)C[C@@H]3CC[C@@H](C)[C@@](O)(O3)C(=O)C(=O)N3CCCC[C@H]3C(=O)O2)CC[C@H]1O [Compound 7] | 2.4 |
| CO[C@@H]1C[C@H](C[C@@H](C)[C@@H]2CC[C@H](C)/C=C(\C)[C@@H](O)[C@@H](OC)C(=O)[C@H](C)C[C@H](C)/C=C/C=C/C=C(\C)[C@H](NS(=O)(=O)C(C)C)C[C@@H]3CC[C@@H](C)[C@@](O)(O3)C(=O)C(=O)N3CCCC[C@H]3C(=O)O2)CC[C@H]1O [Compound 8] | 4.5 |
| CO[C@@H]1C[C@H](C[C@@H](C)[C@@H]2CC[C@H](C)/C=C(\C)[C@@H](O)[C@@H](OC)C(=O)[C@H](C)C[C@H](C)/C=C/C=C/C=C(\C)[C@@H](NS(=O)(=O)CC(C)C)C[C@@H]3CC[C@@H](C)[C@@](O)(O3)C(=O)C(=O)N3CCCC[C@H]3C(=O)O2)CC[C@H]1O [Compound 9] | 2.7 |
| CO[C@@H]1C[C@H](C[C@@H](C)[C@@H]2CC[C@H](C)/C=C(\C)[C@@H](O)[C@@H](OC)C(=O)[C@H](C)C[C@H](C)/C=C/C=C/C=C(\C)[C@H](NS(=O)(=O)CC(C)C)C[C@@H]3CC[C@@H](C)[C@@](O)(O3)C(=O)C(=O)N3CCCC[C@H]3C(=O)O2)CC[C@H]1O [Compound 10] | 12 |
| CO[C@@H]1C[C@H](C[C@@H](C)[C@@H]2CC[C@H](C)/C=C(\C)[C@@H](O)[C@@H](OC)C(=O)[C@H](C)C[C@H](C)/C=C/C=C/C=C(\C)[C@@H](NS(=O)(=O)C3CCC3)C[C@@H]3CC[C@@H](C)[C@@](O)(O3)C(=O)C(=O)N3CCCC[C@H]3C(=O)O2)CC[C@H]1O [Compound 13] | 5.3 |
| CO[C@@H]1C[C@H](C[C@@H](C)[C@@H]2CC[C@H](C)/C=C(\C)[C@@H](O)[C@@H](OC)C(=O)[C@H](C)C[C@H](C)/C=C/C=C/C=C(\C)[C@H](NS(=O)(=O)C3CCC3)C[C@@H]3CC[C@@H](C)[C@@](O)(O3)C(=O)C(=O)N3CCCC[C@H]3C(=O)O2)CC[C@H]1O [Compound 14] | 7.2 |
| CO[C@@H]1C[C@H](C[C@@H](C)[C@@H]2CC[C@H](C)/C=C(\C)[C@@H](O)[C@@H](OC)C(=O)[C@H](C)C[C@H](C)/C=C/C=C/C=C(\C)[C@@H](NS(=O)(=O)C3CCCC3)C[C@@H]3CC[C@@H](C)[C@@](O)(O3)C(=O)C(=O)N3CCCC[C@H]3C(=O)O2)CC[C@H]1O [Compound 15] | 3.6 |
| CO[C@@H]1C[C@H](C[C@@H](C)[C@@H]2CC[C@H](C)/C=C(\C)[C@@H](O)[C@@H](OC)C(=O)[C@H](C)C[C@H](C)/C=C/C=C/C=C(\C)[C@H](NS(=O)(=O)C3CCCC3)C[C@@H]3CC[C@@H](C)[C@@](O)(O3)C(=O)C(=O)N3CCCC[C@H]3C(=O)O2)CC[C@H]1O [Compound 16] | 50 |
| CO[C@@H]1C[C@H](C[C@@H](C)[C@@H]2CC[C@H](C)/C=C(\C)[C@@H](O)[C@@H](OC)C(=O)[C@H](C)C[C@H](C)/C=C/C=C/C=C(\C)[C@@H](NS(=O)(=O)CCCCl)C[C@@H]3CC[C@@H](C)[C@@](O)(O3)C(=O)C(=O)N3CCCC[C@H]3C(=O)O2)CC[C@H]1O [Compound 17] | 1.6 |
| CO[C@@H]1C[C@H](C[C@@H](C)[C@@H]2CC[C@H](C)/C=C(\C)[C@@H](O)[C@@H](OC)C(=O)[C@H](C)C[C@H](C)/C=C/C=C/C=C(\C)[C@@H](NS(=O)(=O)CCO)C[C@@H]3CC[C@@H](C)[C@@](O)(O3)C(=O)C(=O)N3CCCC[C@H]3C(=O)O2)CC[C@H]1O [Compound 19] | 0.34 |
| CO[C@@H]1C[C@H](C[C@@H](C)[C@@H]2CC[C@H](C)/C=C(\C)[C@@H](O)[C@@H](OC)C(=O)[C@H](C)C[C@H](C)/C=C/C=C/C=C(\C)[C@H](NS(=O)(=O)CCO)C[C@@H]3CC[C@@H](C)[C@@](O)(O3)C(=O)C(=O)N3CCCC[C@H]3C(=O)O2)CC[C@H]1O [Compound 20] | 1.7 |
| CO[C@@H]1C[C@H](C[C@@H](C)[C@@H]2CC[C@H](C)/C=C(\C)[C@@H](O)[C@@H](OC)C(=O)[C@H](C)C[C@H](C)/C=C/C=C/C=C(\C)[C@H](NS(C)(=O)=O)C[C@@H]3CC[C@@H](C)[C@@](O)(O3)C(=O)C(=O)N3CCCC[C@H]3C(=O)O2)CC[C@@H]1n1cnnn1 [Compound 21] | 2.1 |
| CO[C@@H]1C[C@H](C[C@@H](C)[C@@H]2CC[C@H](C)/C=C(\C)[C@@H](O)[C@@H](OC)C(=O)[C@H](C)C[C@H](C)/C=C/C=C/C=C(\C)[C@@H](NS(C)(=O)=O)C[C@@H]3CC[C@@H](C)[C@@](O)(O3)C(=O)C(=O)N3CCCC[C@H]3C(=O)O2)CC[C@@H]1n1cnnn1 [Compound 22] | 0.11 |
| CO[C@@H]1C[C@H](C[C@@H](C)[C@@H]2CC[C@H](C)/C=C(\C)[C@@H](O)[C@@H](OC)C(=O)[C@H](C)C[C@H](C)/C=C/C=C/C=C(\C)[C@H](NS(C)(=O)=O)C[C@@H]3CC[C@@H](C)[C@@](O)(O3)C(=O)C(=O)N3CCCC[C@H]3C(=O)O2)CC[C@H]1OP(C)(C)=O [Compound 23] | 26 |
